# Species on record: Rattus norvegicus
# Test: DrugMatrix - Regimen: Daily Repeat
# Assay type: toxicity, organism-based, Sprague-Dawley
# Design: regimen Daily Repeat, gender Male, age 6-8 weeks
# Conditions: in vivo, po, route oral GAVAGE, vehicle .5 % CMC; for ABSOLUTE BASOPHIL / ABSOLUTE EOSINOPHIL / ABSOLUTE LYMPHOCYTE / ABSOLUTE MONOCYTE / ABSOLUTE SEGMENTED NEUTROPHIL / BASOPHIL / EOSINOPHIL / ERYTHROCYTE COUNT / HEMATOCRIT / HEMOGLOBIN / LEUKOCYTE COUNT / LYMPHOCYTE / MEAN CORPUSCULAR HEMOGLOBIN / MEAN CORPUSCULAR HEMOGLOBIN CONCENTRATION / MEAN CORPUSCULAR VOLUME / MONOCYTE / NEUTROPHIL / NUCLEATED RED BLOOD CELLS / PLATELET COUNT: tissue Blood; for ALANINE AMINOTRANSFERASE / ALBUMIN / ALKALINE PHOSPHATASE / ASPARTATE AMINOTRANSFERASE / BLOOD UREA NITROGEN / CARBON DIOXIDE / CHLORIDE / CHOLESTEROL / CREATINE PHOSPHOKINASE / CREATININE / GLUCOSE / LACTATE DEHYDROGENASE / LIPASE / PHOSPHORUS / POTASSIUM / SODIUM / TOTAL BILIRUBIN / TOTAL PROTEIN / URIC ACID: tissue Plasma
# [1] = 25 mg/kg, 72 h, dose level Low, time 3 day
# [2] = 25 mg/kg, 120 h, dose level Low, time 5 day
# [3] = 300 mg/kg, 72 h, dose level High, time 3 day
# [4] = 300 mg/kg, 120 h, dose level High, time 5 day
smiles,measurement,setting,value
CC(=O)S[C@@H]1CC2=CC(=O)CC[C@]2(C)[C@H]2CC[C@@]3(C)[C@@H](CC[C@@]34CCC(=O)O4)[C@H]12 [SPIRONOLACTONE],ABSOLUTE BASOPHIL,[1],0 CELLS/uL
same,ABSOLUTE EOSINOPHIL,[1],0 CELLS/uL
same,ABSOLUTE LYMPHOCYTE,[1],11038 CELLS/uL
same,ABSOLUTE MONOCYTE,[1],168 CELLS/uL
same,ABSOLUTE SEGMENTED NEUTROPHIL,[1],694 CELLS/uL
same,BASOPHIL,[1],0%
same,EOSINOPHIL,[1],0%
same,ERYTHROCYTE COUNT,[1],5.44 x10E6/uL
same,HEMATOCRIT,[1],34.63%
same,HEMOGLOBIN,[1],13.87 G/DL
same,LEUKOCYTE COUNT,[1],11.9 x10E3/uL
same,LYMPHOCYTE,[1],92.67%
same,MEAN CORPUSCULAR HEMOGLOBIN,[1],25.53 pg
same,MEAN CORPUSCULAR HEMOGLOBIN CONCENTRATION,[1],40.03 G/DL
same,MEAN CORPUSCULAR VOLUME,[1],63.7 fL
same,MONOCYTE,[1],1.33%
same,NEUTROPHIL,[1],6%
same,NUCLEATED RED BLOOD CELLS,[1],0.67 /100WBC
same,PLATELET COUNT,[1],1277 x10E3/uL
same,ALANINE AMINOTRANSFERASE,[1],45.67 u/L
same,ALBUMIN,[1],4.3 G/DL
same,ALKALINE PHOSPHATASE,[1],295 u/L
same,ASPARTATE AMINOTRANSFERASE,[1],77.33 u/L
same,BLOOD UREA NITROGEN,[1],15.33 mg/dL
same,CARBON DIOXIDE,[1],28 mmol/L
same,CHLORIDE,[1],101.33 MEQ/L
same,CHOLESTEROL,[1],76.33 mg/dL
same,CREATINE PHOSPHOKINASE,[1],188.33 u/L
same,CREATININE,[1],0.21 mg/dL
same,GLUCOSE,[1],169.33 mg/dL
same,LACTATE DEHYDROGENASE,[1],202.67 u/L
same,LIPASE,[1],9.67 u/L
same,PHOSPHORUS,[1],12.5 mg/dL
same,POTASSIUM,[1],6.74 MEQ/L
same,SODIUM,[1],146.03 MEQ/L
same,TOTAL BILIRUBIN,[1],0.2 mg/dL
same,TOTAL PROTEIN,[1],5.83 G/DL
same,URIC ACID,[1],1.8 mg/dL
same,ABSOLUTE BASOPHIL,[2],0 CELLS/uL
same,ABSOLUTE EOSINOPHIL,[2],0 CELLS/uL
same,ABSOLUTE LYMPHOCYTE,[2],13033 CELLS/uL
same,ABSOLUTE MONOCYTE,[2],85.33 CELLS/uL
same,ABSOLUTE SEGMENTED NEUTROPHIL,[2],1115 CELLS/uL
same,BASOPHIL,[2],0%
same,EOSINOPHIL,[2],0%
same,ERYTHROCYTE COUNT,[2],5.6 x10E6/uL
same,HEMATOCRIT,[2],34.4%
same,HEMOGLOBIN,[2],13.67 G/DL
same,LEUKOCYTE COUNT,[2],14.23 x10E3/uL
same,LYMPHOCYTE,[2],91.33%
same,MEAN CORPUSCULAR HEMOGLOBIN,[2],24.47 pg
same,MEAN CORPUSCULAR HEMOGLOBIN CONCENTRATION,[2],39.73 G/DL
same,MEAN CORPUSCULAR VOLUME,[2],61.5 fL
same,MONOCYTE,[2],0.67%
same,NEUTROPHIL,[2],8%
same,NUCLEATED RED BLOOD CELLS,[2],0 /100WBC
same,PLATELET COUNT,[2],1372 x10E3/uL
same,ALANINE AMINOTRANSFERASE,[2],48.67 u/L
same,ALBUMIN,[2],4.3 G/DL
same,ALKALINE PHOSPHATASE,[2],354.67 u/L
same,ASPARTATE AMINOTRANSFERASE,[2],81 u/L
same,BLOOD UREA NITROGEN,[2],19 mg/dL
same,CARBON DIOXIDE,[2],25.67 mmol/L
same,CHLORIDE,[2],103.33 MEQ/L
same,CHOLESTEROL,[2],60.33 mg/dL
same,CREATINE PHOSPHOKINASE,[2],259.33 u/L
same,CREATININE,[2],0.2 mg/dL
same,GLUCOSE,[2],164.33 mg/dL
same,LACTATE DEHYDROGENASE,[2],139 u/L
same,LIPASE,[2],9.67 u/L
same,PHOSPHORUS,[2],12.23 mg/dL
same,POTASSIUM,[2],6.24 MEQ/L
same,SODIUM,[2],148.03 MEQ/L
same,TOTAL BILIRUBIN,[2],0.23 mg/dL
same,TOTAL PROTEIN,[2],6.27 G/DL
same,URIC ACID,[2],1.93 mg/dL
same,ABSOLUTE BASOPHIL,[3],0 CELLS/uL
same,ABSOLUTE EOSINOPHIL,[3],0 CELLS/uL
same,ABSOLUTE LYMPHOCYTE,[3],10747 CELLS/uL
same,ABSOLUTE MONOCYTE,[3],38 CELLS/uL
same,ABSOLUTE SEGMENTED NEUTROPHIL,[3],481.67 CELLS/uL
same,BASOPHIL,[3],0%
same,EOSINOPHIL,[3],0%
same,ERYTHROCYTE COUNT,[3],5.83 x10E6/uL
same,HEMATOCRIT,[3],37.33%
same,HEMOGLOBIN,[3],14.97 G/DL
same,LEUKOCYTE COUNT,[3],11.27 x10E3/uL
same,LYMPHOCYTE,[3],95.33%
same,MEAN CORPUSCULAR HEMOGLOBIN,[3],25.67 pg
same,MEAN CORPUSCULAR HEMOGLOBIN CONCENTRATION,[3],40.07 G/DL
same,MEAN CORPUSCULAR VOLUME,[3],64.03 fL
same,MONOCYTE,[3],0.33%
same,NEUTROPHIL,[3],4.33%
same,NUCLEATED RED BLOOD CELLS,[3],0 /100WBC
same,PLATELET COUNT,[3],1193 x10E3/uL
same,ALANINE AMINOTRANSFERASE,[3],95 u/L
same,ALBUMIN,[3],4.27 G/DL
same,ALKALINE PHOSPHATASE,[3],425.67 u/L
same,ASPARTATE AMINOTRANSFERASE,[3],757 u/L
same,BLOOD UREA NITROGEN,[3],16.67 mg/dL
same,CARBON DIOXIDE,[3],22.67 mmol/L
same,CHLORIDE,[3],101.33 MEQ/L
same,CHOLESTEROL,[3],65.67 mg/dL
same,CREATINE PHOSPHOKINASE,[3],5158.67 u/L
same,CREATININE,[3],0.2 mg/dL
same,GLUCOSE,[3],152.67 mg/dL
same,LACTATE DEHYDROGENASE,[3],2756 u/L
same,LIPASE,[3],11 u/L
same,PHOSPHORUS,[3],12.67 mg/dL
same,POTASSIUM,[3],9.65 MEQ/L
same,SODIUM,[3],142.53 MEQ/L
same,TOTAL BILIRUBIN,[3],0.3 mg/dL
same,TOTAL PROTEIN,[3],6.07 G/DL
same,URIC ACID,[3],3.73 mg/dL
same,ABSOLUTE BASOPHIL,[4],0 CELLS/uL
same,ABSOLUTE EOSINOPHIL,[4],55.67 CELLS/uL
same,ABSOLUTE LYMPHOCYTE,[4],15788 CELLS/uL
same,ABSOLUTE MONOCYTE,[4],55.67 CELLS/uL
same,ABSOLUTE SEGMENTED NEUTROPHIL,[4],1134 CELLS/uL
same,BASOPHIL,[4],0%
same,EOSINOPHIL,[4],0.33%
same,ERYTHROCYTE COUNT,[4],5.9 x10E6/uL
same,HEMATOCRIT,[4],35.17%
same,HEMOGLOBIN,[4],14.23 G/DL
same,LEUKOCYTE COUNT,[4],17.03 x10E3/uL
same,LYMPHOCYTE,[4],92.67%
same,MEAN CORPUSCULAR HEMOGLOBIN,[4],24.17 pg
same,MEAN CORPUSCULAR HEMOGLOBIN CONCENTRATION,[4],40.47 G/DL
same,MEAN CORPUSCULAR VOLUME,[4],59.6 fL
same,MONOCYTE,[4],0.33%
same,NEUTROPHIL,[4],6.67%
same,NUCLEATED RED BLOOD CELLS,[4],0 /100WBC
same,PLATELET COUNT,[4],1586.67 x10E3/uL
same,ALANINE AMINOTRANSFERASE,[4],70.33 u/L
same,ALBUMIN,[4],4.23 G/DL
same,ALKALINE PHOSPHATASE,[4],327.33 u/L
same,ASPARTATE AMINOTRANSFERASE,[4],72.33 u/L
same,BLOOD UREA NITROGEN,[4],17.33 mg/dL
same,CARBON DIOXIDE,[4],27.33 mmol/L
same,CHLORIDE,[4],101.33 MEQ/L
same,CHOLESTEROL,[4],60.67 mg/dL
same,CREATINE PHOSPHOKINASE,[4],189.67 u/L
same,CREATININE,[4],0.21 mg/dL
same,GLUCOSE,[4],158.33 mg/dL
same,LACTATE DEHYDROGENASE,[4],134.33 u/L
same,LIPASE,[4],10.33 u/L
same,PHOSPHORUS,[4],11.07 mg/dL
same,POTASSIUM,[4],6.24 MEQ/L
same,SODIUM,[4],145.57 MEQ/L
same,TOTAL BILIRUBIN,[4],0.2 mg/dL
same,TOTAL PROTEIN,[4],6.17 G/DL
same,URIC ACID,[4],2 mg/dL
